Measurements from patent US9637473B2, “Acrylamide derivatives as antimalarial agents” (priority 2013, dated 2017).
Counter-ions that a name gives are not always drawn.

system: P. Falciparum NF54; assay: Plasmodium falciparum in vitro assay ([3H]-hypoxanthine incorporation); type: cell-based; settings: P. Falciparum NF54, erythrocytic stages in human red blood cells, 50% human serum
Description: In Vitro Antimalarial Activity: Plasmodium falciparum In Vitro Assay: In vitro activity against erythrocytic stages of P. Falciparum in human red blood cells is determined using a [^3H]-hypoxanthine incorporation assay. One strain sensitive to all drugs (P. […] After 48 hours, [^3H]-hypoxanthine (0.5 μCi) is added to each well of a plate. The plates are incubated for a further 24 hours under the same conditions then harvested with a Betaplate cell harvester (Wallac) and washed with distilled water. The dried filters are inserted into a plastic foil with 10 mL of scintillation fluid and counted in a Betaplate liquid scintillation counter. IC50 values are calculated from sigmoidal inhibition curves using Microsoft Excel.

SMILES | IC50 [nM]
CN1CCC(N2CCC(N(Cc3ccc(N(C)c4ccncc4)cc3)C(=O)/C=C/c3ccc(C(F)(F)F)cc3)C(F)C2)CC1 (racemic) [Example 78, (±)-(E)-N-(cis-3-fluoro-1′-methyl-[1,4′-bipiperidin]-4-yl)-N-(4-(methyl(pyridin-4-yl)amino)benzyl)-3-(4-(trifluoromethyl)phenyl)acrylamide] | 12
CN(c1ccncc1)c1ccc(CN(C(=O)/C=C/c2ccc(C(F)(F)F)cc2)[C@H]2CCCNC2)cc1 [Example 2, (E)-N-[4-(Methyl-pyridin-4-yl-amino)-benzyl]-N-(S)-piperidin-3-yl-3-(4-trifluoromethyl-phenyl)-acrylamide] | 82

same assay, conditions: Plasmodium falciparum, Erythrocyte, P. Falciparum NF54, erythrocytic stages in human red blood cells, 50% human serum

IC50 [nM] | SMILES
138 | O=C(/C=C/c1ccc(C(F)(F)F)cc1)N(Cc1ccc(Nc2ccnc3cc(C(F)(F)F)ccc23)cc1)C1CCN(C2CCCC2)CC1 [Example 90, (E)-N-(1-Cyclopentyl-piperidin-4-yl)-3-(4-trifluoromethyl-phenyl)-N-[4-(7-trifluoromethyl-quinolin-4-ylamino)-benzyl]-acrylamide]
127 | CN1CCC(N2CCC(N(Cc3ccc(C(=O)c4ccncc4)cc3)C(=O)/C=C/c3ccc(C(F)(F)F)cc3)CC2)CC1 [Example 194, (E)-N-(1′-Methyl-[1,4′]bipiperidinyl-4-yl)-N-[4-(pyridine-4-carbonyl)-benzyl]-3-(4-trifluoromethyl-phenyl)-acrylamide]
21 | COc1ccc2nc(C)cc(Nc3ccc(CN(C(=O)/C=C/c4ccc(C(F)(F)F)cc4)C4CCN(C5CCCC5)CC4)cc3)c2c1 [Example 100, (E)-N-(1-Cyclopentyl-piperidin-4-yl)-N-[4-(6-methoxy-2-methyl-quinolin-4-ylamino)-benzyl]-3-(4-trifluoromethyl-phenyl)-acrylamide]
40 | CN(c1ccncc1)c1ccc(CN(C(=O)/C=C/c2ccc(C(F)(F)F)cc2)C2CCC3(CC2)CCN(C2CCCC2)CC3)cc1 [Example 67, (E)-N-(3-cyclopentyl-3-azaspiro[5.5]undecan-9-yl)-N-(4-(methyl(pyridin-4-yl)amino)benzyl)-3-(4-(trifluoromethyl)phenyl)acrylamide]
351 | CN(c1ccc(CN(C(=O)/C=C/c2ccc(C(F)(F)F)cc2)C2CCN(C3CCCC3)CC2)cc1)c1cccnc1 [Example 96, (E)-N-(1-Cyclopentyl-piperidin-4-yl)-N-[4-(methyl-pyridin-3-yl-amino)-benzyl]-3-(4-trifluoromethyl-phenyl)-acrylamide]
120 | O=C(/C=C/c1ccc(C(F)(F)F)cc1)N(Cc1ccc(Nc2ccnc3cc(Cl)ccc23)cc1)C1CCN(C2CCCC2)CC1 [Example 97, (E)-N-[4-(7-Chloro-quinolin-4-ylamino)-benzyl]-N-(1-cyclopentyl-piperidin-4-yl)-3-(4-trifluoromethyl-phenyl)-acrylamide]
340 | CC(C)N1CCC(N(Cc2cccc(Nc3ccncn3)c2)C(=O)/C=C/c2ccc(C(F)(F)F)cc2)CC1 [Example 125, (E)-N-(1-Isopropyl-piperidin-4-yl)-N-[3-(pyrimidin-4-ylamino)-benzyl]-3-(4-trifluoromethyl-phenyl)-acrylamide formate]
43 | O=C(/C=C/c1ccc(C(F)(F)F)cc1)N(Cc1ccc(Nc2ccncc2)cc1)C1CCN(C2CCCC2)CC1 [Example 86, (E)-N-(1-Cyclopentyl-piperidin-4-yl)-N-[4-(pyridin-4-ylamino)-benzyl]-3-(4-trifluoromethyl-phenyl)-acrylamide]
30 | CC(C)N1CCC(N(Cc2cccc(Nc3ccncc3)c2)C(=O)/C=C/c2ccc(C(F)(F)F)cc2)CC1 [Example 126, (E)-N-(1-Isopropyl-piperidin-4-yl)-N-[3-(pyridin-4-ylamino)-benzyl]-3-(4-trifluoromethyl-phenyl)-acrylamide formate]
49 | CN1CCC(N2CCC(N(Cc3ccc(N(C)c4ccncc4)cc3)C(=O)/C=C/c3ccc(C(F)(F)F)nc3)CC2)CC1 [Example 183, (E)-N-(1′-Methyl-[1,4′]bipiperidinyl-4-yl)-N-[4-(methyl-pyridin-4-yl-amino)-benzyl]-3-(6-trifluoromethyl-pyridin-3-yl)-acrylamide]
43 | Cc1cc(Nc2ccc(CN(C(=O)/C=C/c3ccc(C(F)(F)F)cc3)C3CCN(C4CCCC4)CC3)cc2)c2ccccc2n1 [Example 85, (E)-N-(1-Cyclopentyl-piperidin-4-yl)-N-[4-(2-methyl-quinolin-4-ylamino)-benzyl]-3-(4-trifluoromethyl-phenyl)-acrylamide]
43 | Cc1cc(Nc2ccc(CN(C(=O)/C=C/c3ccc(C(F)(F)F)cc3)C3CCN(C(C)C)CC3)cc2)ccn1 [Example 186, (E)-N-(1-Isopropyl-piperidin-4-yl)-N-[4-(2-methyl-pyridin-4-ylamino)-benzyl]-3-(4-trifluoromethyl-phenyl)-acrylamide]
305 | Cc1cc(Nc2ccc(CN(C(=O)/C=C/c3ccc(Cl)cc3)C3CCN(C4CCN(C)CC4)CC3)cc2)ccn1 [Example 117, (E)-3-(4-Chloro-phenyl)-N-(1′-methyl-[1,4′]bipiperidinyl-4-yl)-N-[4-(2-methyl-pyridin-4-ylamino)-benzyl]-acrylamide]
27 | CC(C)N1CCC(N(Cc2cccc(N(C)c3ccncc3)c2)C(=O)/C=C/c2ccc(C(F)(F)F)cc2)CC1 [Example 142, (E)-N-(1-Isopropyl-piperidin-4-yl)-N-[3-(methyl-pyridin-4-yl-amino)-benzyl]-3-(4-trifluoromethyl-phenyl)-acrylamide formate]
76 | Cc1cc(N(C)c2cccc(CN(C(=O)/C=C/c3ccc(C(F)(F)F)cc3)C3CCN(C(C)C)CC3)c2)ccn1 [Example 121, (E)-N-(1-Isopropyl-piperidin-4-yl)-N-{3-[methyl-(2-methyl-pyridin-4-yl)-amino]-benzyl}-3-(4-trifluoromethyl-phenyl)-acrylamide formate]
70 | Cc1cc(Nc2ccc(CN(C(=O)/C=C/c3ccc(C(F)(F)F)cc3)C3CCN(C4CCN(C)CC4)CC3)cc2)ccn1 [Example 116, (E)-N-(1′-Methyl-[1,4′]bipiperidinyl-4-yl)-N-[4-(2-methyl-pyridin-4-ylamino)-benzyl]-3-(4-trifluoromethyl-phenyl)-acrylamide]

Second part, the molecule before the results:

SMILES | IC50 [nM]
Cc1c(/C=C/C(=O)N(Cc2ccc(N(C)c3ccncc3)cc2)C2CCN(Cc3ccccc3)CC2)cnn1C [Example 164, (E)-N-(1-Benzyl-piperidin-4-yl)-3-(1,5-dimethyl-1H-pyrazol-4-yl)-N-[4-(methyl-pyridin-4-yl-amino)-benzyl]-acrylamide] | 368
Cc1nc(CN2CCC(N(Cc3ccc(N(C)c4ccncc4)cc3)C(=O)/C=C/c3ccc(C(F)(F)F)cc3)CC2)co1 [Example 4, (E)-N-[1-(2-Methyl-oxazol-4-ylmethyl)-piperidin-4-yl]-N-[4-(methyl-pyridin-4-yl-amino)-benzyl]-3-(4-trifluoromethyl-phenyl)-acrylamide] | 133
Cc1cc(Nc2ccc(CN(C(=O)/C=C/c3ccc(C(F)(F)F)cc3)C3CCN(Cc4ncn5ccccc45)CC3)cc2)ccn1 [Example 45, (E)-N-(1-Imidazo[1,5-a]pyridin-1-ylmethyl-piperidin-4-yl)-N-[4-(2-methyl-pyridin-4-ylamino)-benzyl]-3-(4-trifluoromethyl-phenyl)-acrylamide] | 168
CN(c1ccncc1)c1ccc(CN(C(=O)/C=C/c2ccc(C(F)(F)F)cc2)C2CCCN(C3CCCC3)CC2)cc1 (racemic) [Example 60, (±)-(E)-N-(1-cyclopentylazepan-4-yl)-N-(4-(methyl(pyridin-4-yl)amino)benzyl)-3-(4-(trifluoromethyl)phenyl)acrylamide] | 79
CN(c1ccncc1)c1ccc(CN(C(=O)/C=C/c2ccc(C(F)(F)F)cc2)C2CCN(CCc3ccccc3)CC2)cc1 [Example 14, (E)-N-[4-(Methyl-pyridin-4-yl-amino)-benzyl]-N-(1-phenethyl-piperidin-4-yl)-3-(4-trifluoromethyl-phenyl)-acrylamide] | 55
CCc1ccc(/C=C/C(=O)N(Cc2ccc(N(C)c3ccncc3)cc2)C2CCN(Cc3ccccc3)CC2)cc1 [Example 147, (E)-N-(1-Benzyl-piperidin-4-yl)-3-(4-ethyl-phenyl)-N-[4-(methyl-pyridin-4-yl-amino)-benzyl]-acrylamide] | 157
CN(c1ccncc1)c1ccc(CN(C(=O)/C=C/c2ccc(C(F)(F)F)cc2)C2CCN(Cc3ccccc3)CC2)cc1 [Example 6, (E)-N-(1-Benzyl-piperidin-4-yl)-N-[4-(methyl-pyridin-4-yl-amino)-benzyl]-3-(4-trifluoromethyl-phenyl)-acrylamide] | 58
Cc1cc(Nc2ccc(CN(C(=O)/C=C/c3ccc(C(F)(F)F)cc3)C3CCN(Cc4ncccn4)CC3)cc2)ccn1 [Example 47, (E)-N-[4-(2-Methyl-pyridin-4-ylamino)-benzyl]-N-(1-pyrimidin-2-ylmethyl-piperidin-4-yl)-3-(4-trifluoromethyl-phenyl)-acrylamide] | 345
Cc1ccc(CN2CCC(N(Cc3ccc(N(C)c4ccncc4)cc3)C(=O)/C=C/c3ccc(C(F)(F)F)cc3)CC2)cc1 [Example 12, (E)-N-[1-(4-Methyl-benzyl)-piperidin-4-yl]-N-[4-(methyl-pyridin-4-yl-amino)-benzyl]-3-(4-trifluoromethyl-phenyl)-acrylamide] | 29
CCN1CCC(N(Cc2ccc(N(C)c3ccncc3)cc2)C(=O)/C=C/c2ccc(C(F)(F)F)cc2)CC1 [Example 7, (E)-N-(1-Ethyl-piperidin-4-yl)-N-[4-(methyl-pyridin-4-yl-amino)-benzyl]-3-(4-trifluoromethyl-phenyl)-acrylamide] | 26
